Values quoted from earlier work as cited in patent publication US20030235609A1, “Use of cholinesterase antagonists to treat insulin resistance” (priority 2002, published 2003).

Test system: muscarinic receptor
Conditions: cats

## COc1ccccc1CNCCCCCCNCCCCCCCCNCCCCCCNCc1ccccc1OC [methoctramine]
Administered into the portal vein
  Dose required to produce a full insulin resistance: 10^−6 μmol/kg

## CN1CCN(CC(=O)N2c3ccccc3C(=O)Nc3cccnc32)CC1 [pirenzepine]
  Dose achieving a similar degree of insulin resistance: 10^7 mmol/kg
